# Measured values from patent US6872727B1, “Polycyclic pyrimidine -2,4(1H,3H)-diones with functionalized alkyl residues at the 1- and/or 3-position(s); methods for their synthesis and pharmaceutical preparation” (Privates Institut fur Biomedizinische Forschung und Beratung, priority 1999, dated 2005).
# How the values were obtained:
# Assay type in all cases: biochemical
# [1] = target: Clostridium histolyticum collagenase (EC 3.4.24.3); experiment: Inhibition of Clostridium histolyticum collagenase, spectrophotometric FALGPA assay; details: chromogenic substrate FALGPA; read-out: C. histolyticum (50% inhibition)
# From the text: The activity of Clostidium histolyticum collagenase may be readily determined by a simple spectrophotometric assay using the synthetic chromogenic peptide substrate N-(3-[2-furyl]acryloyi)-leucine-glycine-proline-alanine (FALGPA; Van Hart, H. E. and Steinbrink, D. R. 1981, Anal. Biochem. 113, 356). The degree of inhibition of the degradation of this chromogenic substrate by the addition of the various test substances described in Table 1 may be easily quantified. The enzyme and substrate are commercially available.
# [2] = target: T1, catalytic domain of human matrix metalloproteinase-8 (MMP-8; neutrophil collagenase) (Homo sapiens, UniProt P22894); experiment: Inhibition of catalytic domain of human MMP-8, fluorimetric assay, Dixon plot; details: recombinant catalytic domain, Mca-Pro-Leu-Gly-Leu-Dap(Dnp)-Ala-Arg-NH2 substrate
# T1 construct: express heterologously only the catalytic domain, rather than the entire MMP-8, in Escherichia coli; made in house; host or cells: Escherichia coli
# From the text: The catalytic domain of MMP-8 was chosen as a further test enzyme because of its high stability and constitutive activity, obviating the need for enzymatic or chemical activation, which is a well-known source of error, e.g. the commonly used organomercurial compounds used to activate pro-MMPs may interfere in subsequent assays or affect the activity of the enzyme, leading to erroneous interpretation of results. The cloning strategy was designed to express heterologously only the catalytic domain, rather than the entire MMP-8, in Escherichia coli. With the so-constructed expressed catalytic domain, we obtained a stable enzymatically active, highly pure enzyme that is well suited for routine investigation of the efficacy of the synthetic inhibitors and provides highly reproducible test results.
# The cloning and expression of the recombinant catalytic domain of MMP-8 follows the protocol developed by Schnierer et al. (Schnierer, S., Kleine, T., Gote, T., Hilleman, A., Knäuper, V., and Tschesche, H., 1993, The recombinant catalytic domain of human neutrophil collagenase lacks type I collagen substrate specificity, Biochem. Biophys. Res. Commun. 191, 319-326).
# (§1) The enzymatic cleavage of commercially available synthetic internally quenched fluorigenic peptide substrates such as 7-methylcoumarin-4-yl-acetyl-prolyleucyl-glycyl-leucyl-(dinitrophenyl-L-α,β-diaminopropionyl)-alanyl-arginylamide (Mca-Pro-Leu-Gly-Leu-Dap(Dnp)-Ala-Arg-NH2) at the scissile -Gly-Leu-peptide bond separates the fluorescent Mca group from the dinitrophenol quencher, resulting in a strong linear increase in fluorescence intensity that can be readily measured in a fluorimeter (λexitation328 nm, λemission 393 nm) over the first few minutes of the reaction. The specificity of the assay for matrix metalloproteinases is provided by the type I collagen-derived sequence -Pro-Leu-Gly-Leu- in the synthetic substrate, as well as by the incubation conditions. To test the efficacy of the synthetic collagenase/MMP inhibitors, the residual enzymatic activity remaining after an incubation of enzyme plus different amounts of inhibitor is measured at a fixed enzyme and substrate concentration. For each inhibitor, three test series at different fixed substrate concentrations were carried out. From the time-dependent increase in fluorescence intensity measured, the velocity (v) of the enzymatic activity can be calculated as increase in arbitrary fluorescence intensity units per minute. The inhibition constant Ki is calculated graphically by the method of Dixon (1953) by plotting the reciprocal of the reaction velocity 1/v on the ordinate, and the inhibitor concentration on the abscissa. The x-intercept of the linear plot is defined as minus K1 value.
# (§2) 1984 μl assay buffer (100 mM Tris-HCl pH 7,5, 100 mM NaCl, 10 mM CaCl2, 0,05% Brij 35) • 2 μl inhibitor dissolved in DMSO, or DMSO alone as a solvent control • 4 μl enzyme (MMP-2, MMP-9, or the catalytic domain of MMP-8) • 10 μl Mca-Pro-Leu-Gly-Leu-Dap(Dnp)-Ala-Arg-NH2 in DMSO Method • 1. Incubate buffer, enzyme, and inhibitor for 5 min at room temperature, with stirring. • 2. Start the reaction by adding 10 μl substrate in DMSO • 3. Record the increase in fluorescence intensity over 2 min. Confirmation of the Inhibitory Activity by Protein Zymographic Analysis
# [3] = target: T2, human matrix metalloproteinase-9 (MMP-9; gelatinase B) (Homo sapiens, UniProt P14780); experiment: Inhibition of human matrix metalloproteinase-9 (gelatinase B); details: trypsin-activated native MMP-9 from human buffy coat; for IC50: read-out: MMP-9 (50% inhibition)
# T2 construct: from tissue; host or cells: human buffy coat (blood leukocytes)
# Protocol: Native MMP-9 was reproducibly obtained with reasonable yield and purity from human buffy coat. Buffy coat, to which was added an appropriate volume of 10% (v/v) Triton-X-100 to obtain a final concentration of 0,4% detergent, was shaken on ice for 30 min; then, one volume of twofold-concentrated binding buffer (40 mM Tris-HCl pH 7,5, 10 mM CaCl2, 1 M NaCl, 0,2% (v/v) Triton X-100 was added and the mixture shaken on ice for a further 30 min.
# The mixture was then centrifuged for 15 min at 16,000 rpm (30,590×g) in a Kendro SS-34 rotor at 4° C. and the resulting supernatant filtered over glass wool. The filtrate was incubated batchwise with gelatin-agarose equilibrated in binding buffer for 1 h on ice with continuous shaking The MMP-9-bound gelatin-agarose was then loaded into a chromatographic tube and the column washed with at least ten bed volumes of binding buffer, or until no protein was detected by absorbance at 280 nm in the wash buffer. MMP-9 was eluted from the gelatin affinity column by application of two bed volumes of binding buffer containing 5% (v/v) dimethylsulfoxide (DMSO).
# The eluate was applied to a gel filtration column of Sephadex G-75 both to exchange buffer and to eliminate small amounts of contaminating MMP-2. The G-75 column was prepared and eluted with Buffer I [20 mM Tris-HCl pH 7,5, 5 mM CaCl2, 100 mM NaCl, 0,1% (v/v) Triton X-100].
# The eluted MMP-9 includes the three characterized forms of the enzyme: monomer, homodimer, and heterodimer (complex with lipokalin). The purity of MMP-9 was estimated to be ca. 90%, with the remaining contaminating protein being fibronectin and small amounts of TIMPS.
# The latent MMP-9 was activated by a 30-60 min incubation at 37° C. with 1/100 vol trypsin (10 mg ml^−1). The trypsin was subsequently inactivated by addition of the serine proteinase inhibitor phenlymethylsulfonylfluoride (PMSF) or the more specific trypsin inhibitor TLCK.
# as §1
# as §2, with “Confirmation of the Inhibitory Activity by Protein Zymographic Analysis” left out
# T1 sequence (P22894 100-262 limits assumed): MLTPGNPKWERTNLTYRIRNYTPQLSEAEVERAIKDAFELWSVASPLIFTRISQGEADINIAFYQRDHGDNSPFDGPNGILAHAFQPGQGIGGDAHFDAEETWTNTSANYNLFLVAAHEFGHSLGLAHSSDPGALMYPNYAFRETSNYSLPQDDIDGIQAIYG
# T2 sequence (P14780 107-707 limits assumed): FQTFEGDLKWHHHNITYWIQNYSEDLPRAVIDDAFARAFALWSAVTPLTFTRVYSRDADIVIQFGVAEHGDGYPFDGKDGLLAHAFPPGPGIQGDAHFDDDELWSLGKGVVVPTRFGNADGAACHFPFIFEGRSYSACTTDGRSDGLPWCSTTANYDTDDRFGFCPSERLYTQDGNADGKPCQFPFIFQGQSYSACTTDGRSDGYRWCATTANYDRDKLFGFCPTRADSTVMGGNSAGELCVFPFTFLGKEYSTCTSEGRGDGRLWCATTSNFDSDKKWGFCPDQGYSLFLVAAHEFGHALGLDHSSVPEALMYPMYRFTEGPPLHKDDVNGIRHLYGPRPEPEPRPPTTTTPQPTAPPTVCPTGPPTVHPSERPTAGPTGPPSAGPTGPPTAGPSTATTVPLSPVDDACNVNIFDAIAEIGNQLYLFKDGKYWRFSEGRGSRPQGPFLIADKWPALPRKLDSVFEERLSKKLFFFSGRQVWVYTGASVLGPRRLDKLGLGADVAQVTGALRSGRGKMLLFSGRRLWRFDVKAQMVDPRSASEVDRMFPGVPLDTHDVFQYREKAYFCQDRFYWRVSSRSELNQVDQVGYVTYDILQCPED
SMILES,IC50 [3] [µM],MMP-8 (Ki value) [2],IC50 [1] [µM],Ki [2] [µM],MMP-9 (50% inhibition) [3]
"CC(S)CCn1c(=O)[nH]c(=O)c2ccccc21 (racemic) [Example 3, (R,S)-1-(3-mercaptobut-1-yl)-chinazolin-2,4(1H,3H)-dione]",,,27.5,38.5,negative
"O=c1[nH]c(=O)n(CCCS)c2ccccc12 [Example 4, 1-(3-mercaptopropyl)-chinazolin-2,4(1H,3H)-dione]",6,,53.8,7,
"O=c1[nH]c(=O)n(CCS)c2ccccc12 [Example 5, 1-(2-mercaptoethyl)-chinazolin-2,4(1H,3H)-dione]",12.5,,39.2,70,
"Cn1c(=O)c2ccccc2n(CCCS)c1=O [Example 7, 1-(3-mercaptoprop-1-yl)-3-methyl-chinazolin-2,4(1H,3H)-dione]",71.4,negative,11.5,,
"Cn1c(=O)c2sccc2n(CCS)c1=O [Example 17, 1-(2-mercaptoethyl)-3-methyl-thieno[3,2-d]-pyrimidine-2,4(1H,3H)-dione]",10,negative,,,

# Now from value to compound, other results behind:
IC50 [3] [µM],MMP-8 (Ki value) [2],SMILES,IC50 [1] [µM],Ki [2] [µM],MMP-9 (50% inhibition) [3]
10,,"CC(CCS)n1c(=O)[nH]c2ccccc2c1=O (racemic) [Example 18, (R,S)-3-[3-(1-methyl)-mercaptopropyl]-chinazolin-2,4(1H,3H)-dione]",,6,
20,,"O=c1[nH]c2ccccc2c(=O)n1CCCCS [Example 12, 3-(4-mercaptobut-1-yl)-chinazolin-2,4(1H,3H)-dione]",,11,
50,negative,"Cn1c(=O)c2sccc2n(CCCS)c1=O [Example 14, 1-(3-mercaptoprop-1-yl)-3-methyl-thieno(3,2-d)-pyrimidin-2,4(1H,3H)-dione]",,,
